# Key:
# ataxia in SCD = conditions: NPL 3, cited from earlier work
# [1] = Pharmacokinetic study in humans, single dose on an empty stomach; assay type: in vivo, human; conditions: single dose 0.1-10 mg, healthy adult males
# Experimental: Rovatirelin trihydrate (0.1, 0.3, 1, 2.5, 5 or 10 mg) or placebo was administered to 48 healthy adult males (6 individuals per group and 12 on placebo) as a single dose on an empty stomach. Analysis of the pharmacokinetics of intact rovatirelin under this condition indicated linearity of Cmax (maximum plasma concentration), AUC0-∞ (area under the plasma concentration curve vs. time curve from time 0 to infinity), and Ae0-48 (cumulative amount excreted into urine from time 0-48 hours) of rovatirelin in a dosage range from 0.1-10 mg.
# animal models = conditions: PTL 2; cited from earlier work
# [2] = PTL 2; cited from earlier work
# [3] = Repeated dose study in healthy adult males; assay type: in vivo, human; conditions: for transition of FT3 value (serum concentration, mean) / transition of FT4 values (serum concentration, mean): oral, 9 days
# Experimental: To 50 healthy adult males (8 individuals per group and 10 on placebo), rovatirelin trihydrate (0.25, 0.5 or 1.0 mg) or placebo was orally administered once daily or rovatirelin trihydrate (0.25 or 0.5 mg) or placebo was orally administered twice daily after breakfast and after dinner, for 9 consecutive days.
# Serum concentrations (mean) of FT3, FT4, TSH, and prolactin (PRL), and adverse events and the like were evaluated.
# SCD patients [4] = assay: Clinical trial of SCD patients (Phase II study); assay type: in vivo, human; conditions: for amount of change in the SARA total score: 24 weeks, pure cerebellar SCD patients, mean
# Experimental: Rovatirelin trihydrate (0.4, 0.8, 1.6 or 3.2 mg) or placebo was orally administered to 225 SCD patients once daily after breakfast for 24 weeks (double-blind).
# The efficacy endpoint was the amount of change in the SARA total score calculated by, as an example, the SARA total score at the final assessment in the treatment period (the final observed value in the treatment period) minus that at the end of the pre-observation period as an example. The safety endpoints were, as an example, the occurrence of adverse events and side effects, physiological examinations (e.g., blood pressure and pulses), and endocrinologic examinations (e.g., FT3 and FT4).
# It is noted that the SARA total score was calculated by a sum of the SARA scores for each item ((i.e., gait (score 0-8), stance (score 0-6), sitting (score 0-4), speech disturbance (score 0-6), finger chase (score 0-4), nose-finger test (score 0-4), fast alternating hand movements (score 0-4), and heel-shin slide (score 0-4) (the score 0 is normal for all items)).
# [5] = system: patients with pure cerebellar SCD; assay: Clinical trial of pure cerebellar SCD patients (Phase III study); assay type: in vivo, human
# Experimental: Rovatirelin trihydrate at a dose of 1.6 or 2.4 mg or placebo was orally administered to patients with pure cerebellar SCD (SCA6, SCA31 or cortical cerebellar atrophy (CCA)) with ataxia once daily after breakfast for 28 weeks (double-blind; 124 patients in the 1.6 mg group, 122 patients in the 2.4 mg group, and 123 patients in the placebo group).
# To appropriately assess the efficacy of rovatirelin trihydrate on ataxia, this study was performed on pure cerebellar SCD patients with a SARA gait score between 2 and 6 and a SARA total score of ≥6.
# The same items as those listed in Example 3 were used as efficacy and safety endpoints. SCD is a disease that automatically becomes worse; therefore it is important in the treatment to retard the deterioration. Accordingly, patients with a […] in their SARA score compared with the time in week 0 were defined as deteriorated patients, and deterioration rates (i.e., the number of deteriorated patients/total number of patients) in the SARA total score and SARA scores for each item were calculated.
# [6] = system: pure cerebellar SCD patients; assay: Long-term extension study of pure cerebellar SCD patients; assay type: in vivo, human; conditions: 2.4 mg once daily, at 52 weeks
# Experimental: For patients who completed the phase III study (Example 4), rovatirelin trihydrate was administered at 1.6 or 2.4 mg once daily for 52 weeks (open-label parallel-group comparative study).
# The same items as those listed in Example 4 were used as efficacy and safety endpoints, and deterioration rates (i.e., the number of deteriorated patients/total number of patients) in the SARA total score and SARA scores for each items were calculated in a similar manner.
# SCD patients [7] = assay: Study of switch from conventional drugs to rovatirelin in SCD patients; assay type: in vivo, human; conditions: switch group from taltirelin, 24 weeks, P<0.01
# Experimental: To the patients were orally administered rovatirelin trihydrate at 1.6 or 2.4 mg once daily after breakfast for 24 weeks (randomized, open-label parallel-group comparative study).
# A 4-week pre-observation period was set prior to the start of the treatment period. For patients who received a conventional SCD agent taltirelin or protirelin agent (TRH agent) before the pre-observation period, the medication was continued until the end of the pre-observation period without changing its dosage and administration.
# The same items as those listed in Example 4 were used as efficacy and safety endpoints.
# [8] = 0.5 mg once daily (0.5 mg/qd) compared with 0.25 mg twice daily
# [9] = 1 mg once daily (1 mg/qd) compared with 0.5 mg twice daily
# [10] = 2.4 mg group, elderly aged ≥65 years
structure (smiles),measurement,setting,value
CN1C(=O)C[C@@H](C(=O)N[C@@H](Cc2cnc[nH]2)C(=O)N2CCC[C@H]2C(N)=O)NC1=O.O.O.O.O [Taltirelin hydrate],total improvement level (subjective assessment of a physician) versus placebo,"ataxia in SCD; after 28 weeks, ataxia in SCD",significant difference
same,individual symptoms (symptom of ataxia),ataxia in SCD; phase III double-blind comparative study,no significant improvement was observed
"C[C@@H]1OC(=O)N[C@@H]1C(=O)N[C@@H](Cc1cscn1)C(=O)N1CCC[C@H]1C [rovatirelin, (4S,5S)-5-methyl-N-{(2S)-1-[(2R)-2-methylpyrrolidin-1-yl]-1-oxo-3-(1,3-thiazol-4-yl)propan-2-yl}-2-oxo-1,3-oxazolidine-4-carboxamide]",dose proportionality of AUC0-∞,[1],linearity
same,dose proportionality of Ae0-48 (cumulative amount excreted into urine 0-48 hours),[1],linearity
same,dose proportionality of Cmax (maximum plasma concentration),[1],linearity
same,effects in improving ataxia relative to taltirelin,animal models,at least 30 times
same,bioavailability (BA),[2],high
C[C@@H]1OC(=O)N[C@@H]1C(=O)N[C@@H](Cc1cscn1)C(=O)N1CCC[C@H]1C [rovatirelin trihydrate],"transition of FT3 value (serum concentration, mean)",[3]; [8],proceeded at lower levels as a whole
same,"transition of FT4 values (serum concentration, mean)",[3]; [8],comparable for both groups or the transition for the 0.5 mg/qd group proceeded at slightly lower levels
same,FT4 concentrations versus reference limit,"[3]; 0.5 mg twice daily, Day 5 and Day 9, reference limits 0.9 and 1.7 ng/dL",above the reference limit
same,"transition of FT3 value (serum concentration, mean)",[3]; [9],proceeded at lower levels as a whole
same,"transition of FT4 values (serum concentration, mean)",[3]; [9],proceeded at lower levels as a whole
same,amount of change in the SARA total score,SCD patients [4]; 0.4 mg once daily,−1.09 score
same,amount of change in the SARA total score,SCD patients [4]; 0.8 mg once daily,−1.27 score
same,discontinuation rate,SCD patients [4]; 1.6 mg group (placebo 15.6%),17.8%
same,amount of change in the SARA total score,SCD patients [4]; 1.6 mg once daily,−1.58 score
same,discontinuation rate,SCD patients [4]; 3.2 mg group (placebo 15.6%),28.9%
same,FT3 and FT4 concentrations versus upper reference limits,SCD patients [4]; 3.2 mg once daily,slightly above the upper reference limits
same,amount of change in the SARA total score,SCD patients [4]; 3.2 mg once daily,−1.65 score
same,side effect rate compared with placebo (Fisher's exact test),"SCD patients [4]; 3.2 mg once daily, P=0.002",significantly differed
same,FT3 and FT4 concentrations versus normal range,"[5]; 1.6 mg and 2.4 mg groups, 4 weeks after the start of administration, no further increase subsequently",reached the upper limit of the normal range
same,SARA gait and stance scores compared with the placebo group,[5]; 1.6 mg group,no improvement was observed
same,SARA total score compared with the placebo group,[5]; 1.6 mg group,no improvement was observed
same,discontinuation rate,[5]; 1.6 mg group (placebo 4.9%),16.0%
same,amount of change in the SARA total score,"[5]; 1.6 mg once daily, 28 weeks, compared with pre-dose score",−0.75
same,discontinuation rate,[5]; 2.4 mg group (placebo 4.9%),19.8%
same,deterioration rate of the SARA total score,[5]; 2.4 mg group (placebo 30.9%),23.8%
same,amount of change in the SARA gait score,[5]; [10],−0.19
same,amount of change in the SARA stance score,[5]; [10],−0.54
same,amount of change in the SARA total score,[5]; [10],−1.39
same,amount of change in the SARA total score,"[5]; 2.4 mg once daily, 28 weeks, compared with pre-dose score",−1.22
same,deterioration rate for items (gait),[6],9.9%
same,deterioration rate of the SARA total score,[6],21.0%
same,amount of change in the SARA total score,[6]; 81 patients who completed,−1.41
same,amount of change in the SARA total score at an endpoint,SCD patients [7]; 1.6 mg once daily,−1.34
same,amount of change in the SARA total score at an endpoint,SCD patients [7]; 2.4 mg once daily,−1.35
